Experiments:
[1] = system: BALB/c 3T3 neo-only transfectants (18neo); assay: 51Cr-release CTL assay with T1272-specific effectors on peptide-sensitized fibroblast targets; format: cell-based, BALB/c mice; details: for % specific 51Cr release, Immune spleen cells: 0.1 μM peptide on 18neo targets, effectors spleen cells of 10 μM T1272 peptide-pulsed spleen cell-immunized BALB/c mice restimulated with 0.1 μM T1272; for % specific 51Cr release, Immune spleen cells / % specific 51Cr release, CTL line: E/T 40:1; for % specific 51Cr release, CTL line: 1.0 μM peptide on 18neo targets, short-term T1272-specific BALB/c CTL line (3 weeks in culture); for peptide concentration able to sensitize targets for lysis: titrated in the killing assay, T1272 peptide-immune splenic CTL at 40:1 (FIG. 1C)
Experimental: CTL generation: BALB/c (H-2^d) mice were immunized intravenously with 20×10^6 spleen cells pulsed with various concentrations of T1272 peptide for two hours at 37° C. and irradiated at 2,000 rad (by the method of H. Takahashi, Y. Nakagawa, K. Yokomuro, & J. A. Berzofsky, submitted). One week later, immune spleen cells (3×10^6/ml) were restimulated for six days in vitro with various concentrations of T1272 peptide in 10% Rat-T Stim, without Con A (Collaboration Research Incorporated, Bedford, Mass.) in 24-well culture plates in complete T-cell medium (CTM)(14), a 1:1 mixture of RPMI 1640 and Eagle-Hanks amino acid medium containing 10% fetal bovine serum, 2 mM L-glutamine, penicillin (100 U/ ml), streptomycin (100 μg/ml), and 5×10^−5 M 2 mercaptoethanol.
CTL Assay. Cytolytic activity of the restimulated cells was measured as described (15) by using a six-hour assay with various ^51Cr-labeled targets. For testing the peptide specificity of CTL, effectors and ^51CR-labeled targets were mixed with various concentrations of peptide at the beginning of the assay. The percentage specific ^51CR release was calculated as 100(experimental release−spontaneous release)/(maximum release−spontaneous release). Maximum release was determined from supernatants of cells that were lysed by addition of 5% Triton X-100. Spontaneous release was determined from target cells incubated without added effector cells.
To more precisely identify the T-cell epitope recognized by T1272-specific BALB/c CTL, and to test the hypothesis that the response was specific for the neo-antigenic determinant created by the mutation, a series of peptides was synthesized and various concentrations of these peptides were individually added to effectors and ^51Cr-labeled fibroblast targets at the start of the assay culture. We measured the cytotoxic activity of two types of effector cells: spleen cells from mice immunized with peptide-pulsed cells stimulated once in vitro with 0.1 μM T1272 peptide (presumably polyclonal·effector populations), and a short-term CTL line (possibly an oligoclonal population, although only three weeks in culture).
CTL effectos were spleen cells derived from die 10 μM T1272 peptide-pulsed spleen cell-immunized BALB/c mice (restimulated 6 days with 0.1 μM T1272 peptide) (left) or a short-term T1272-specific BALB/c CTL line (after 3 weeks in culture) (right). BALB/c 3T3 neo-only transfectants (18neo) (H-2^d) plus 0.1 μM synthetic peptide were used as targets with BALB/c spleen effectors or with 1.0 μM peptide for the CTL line. […] The effector/target cell ratio was 40:1. The arrow and bold-face amino acids indicate the site of the 135 Cys to Tyr mutation. Underlined amino acids correspond to human p53 residues which differ from the mouse p53.

[2] = system: HIV-1-IIIB gp160-gene transfected BALB/c.3T3 fibroblasts; assay: CTL induced by i.v. immunization with peptide-pulsed irradiated cells, 51Cr release on gp160 transfectants; format: in vivo, BALB/c mice; details: cells pulsed with the 10-mer before immunization; without adding IL-2 exogenously (FIG. 9)
Experimental: CTL Generation. Immunizations were carried out either subcutaneously (s.c.) in the base of the tail, or intraperitoneally (i.p.), or intravenously (i.v.) from the tail vein with 27 G needle. Several weeks later, immune spleen cells (5×10^6/ml in 24-well culture plates in complete T-cell medium (a 1:1 mixture of RPMI 1640 and EHAA medium containing 10% FCS, 2 mM L-glutamine, 100 U/ml penicillin, 100 μg/ml streptomycin and 5×10^−5M 2-mercaptoethanol)) were restimulated for 6 days in vitro with mitomycin-C treated HIV-1-IIIB envelope gp160 gene transfected histocompatible BALB/c.3T3 fibroblasts alone or in the presence of 10% Rat Con-A supernatant-containing medium (Rat T-cell Monoclone) (Collaborative Research, Inc., Bedford, Mass.) or 10 U/ml of recombinant mouse IL-2 (rIL-2) (Genzyme, Boston, Mass.).
CTL assay. After culture for 6 days, cytolytic activity of the restimulated cells was measured as previously described (21) using a 6 hr assay with various ^51Cr-labelled targets, as indicated in the figure legends. […] The percent specific ^51Cr release was calculated as 100 (experimental release−spontaneous release)/(maximum release−spontaneous release). Maximum release was determined from supernatants of cells that were lysed by addition of 5% Triton-X 100. Spontaneous release was determined from target cells incubated without added effector cells. […]

[3] = system: L-cell (H-2^k) transfectants expressing D^d, L^d and K^d; assay: MHC-restriction mapping of T1272 peptide recognition by CTL; format: cell-based, mouse; details: 0.1 μM peptide T1272, K^d L-cell transfectants (FIG. 2B)
Experimental: MHC-restriction mapping. L-cell (H-2^k) transfectants expressing D^d (T4.8.3 (18), L^d (T1.1.1 (19) and K^d (B4III-2(20)) were used as targets, in the presence or absence of 0.1 μM peptide T1272. neo gene transfected BALB/c 3T3 fibroblasts (18neo) (H-2^d) (21) were used as a positive control, and neo gene-transfected L-cells L28 (H-2^k) (21) were used as a negative target control, also in the presence or absence of peptide.
The BALB/c 3T3 (18neo) fibroblasts (H-2^d) used as targets in these experiments express class I but not class II MHC gene products.
In this experiment, 2×10^3 51Cr-labeled targets were cultured with T1272-immune splenic effector cells (a short-term line stimulated twice with 0.1 μM peptide) at several effector/target cell ratios in the presence or absence of 0.1 μM peptide T1272. L-cell (H-2^k) transfectants expressing D^d (T4.8.3 (18)), L^d (T1.1.1 (19)) and K^d (B4III-2 (20)) were used as targets. neo gene transfected BALB/c 3T3 fibroblasts (isneo) (H-2^d) (21) were used as a positive control, and neo gene-transfected L-cells L28 (H-2^k) (21) were used as a negative target control. Spontaneous release was less than 20% of maximal release. Although background without peptide varied among the different transfectants from experiment to experiment, T1272 peptide-specific lysis was consistently seen only in the cells expressing K^d, in five different experiments. […]

Sequence	% specific 51Cr release, Immune spleen cells [1] [%]	% specific 51Cr release, CTL line [1] [%]	priming of CD8+ CTL by minimal peptide [2]	peptide concentration able to sensitize targets for lysis [1]	class I MHC restriction of peptide recognition by CTL [3]
ALNKMFYQLAKT [Peptide T12]	9.7	−9.1			
KMFYQLAKTCPVQL [Peptide L14, C-terminal 14 residues of the T1272 peptide]	22.2	22.1			
RGPGRAFVTI [Peptide 18IIIB-I-10]			can prime CD8^+ CTL almost as well as 18IIIB		
RIQRGPGRAFVTIGK [Peptide P18IIIB]				not recognized at any concentration	
TYSPALNKMFYQLAKTCPVQL [Peptide T1272]	35.4	24.7		< 0.1 µM	restricted by the class I molecule K^d
TYSPALNKMFYQL [Peptide L13]	14.7	−8.9			
FYQLAKTCPV [Peptide V10]	62.7	53.7			
